Measured values reported in publication PMC8401933 (Molecules, 2021).

Tests used:
[1] = target: T1, PRKG2 (Homo sapiens, UniProt Q13237); experiment: KINOMEscan binding; settings: read-out: Percent Control
T1 construct: purchased Eurofins DiscoverX KINOMEscan

[2] = target: T2, S6K1 (Homo sapiens, UniProt P23443); experiment: KINOMEscan binding; settings: read-out: Percent Control
T2 construct: purchased Eurofins DiscoverX KINOMEscan

[3] = target: T3, RAF1 (Homo sapiens, UniProt P04049); experiment: KINOMEscan binding; settings: read-out: Percent Control
T3 construct: purchased Eurofins DiscoverX KINOMEscan

[4] = target: T4, SRPK3 (Homo sapiens, UniProt Q9UPE1); experiment: KINOMEscan binding; settings: read-out: Percent Control
T4 construct: purchased Eurofins DiscoverX KINOMEscan
T4 sequence (Q9UPE1 whole entry): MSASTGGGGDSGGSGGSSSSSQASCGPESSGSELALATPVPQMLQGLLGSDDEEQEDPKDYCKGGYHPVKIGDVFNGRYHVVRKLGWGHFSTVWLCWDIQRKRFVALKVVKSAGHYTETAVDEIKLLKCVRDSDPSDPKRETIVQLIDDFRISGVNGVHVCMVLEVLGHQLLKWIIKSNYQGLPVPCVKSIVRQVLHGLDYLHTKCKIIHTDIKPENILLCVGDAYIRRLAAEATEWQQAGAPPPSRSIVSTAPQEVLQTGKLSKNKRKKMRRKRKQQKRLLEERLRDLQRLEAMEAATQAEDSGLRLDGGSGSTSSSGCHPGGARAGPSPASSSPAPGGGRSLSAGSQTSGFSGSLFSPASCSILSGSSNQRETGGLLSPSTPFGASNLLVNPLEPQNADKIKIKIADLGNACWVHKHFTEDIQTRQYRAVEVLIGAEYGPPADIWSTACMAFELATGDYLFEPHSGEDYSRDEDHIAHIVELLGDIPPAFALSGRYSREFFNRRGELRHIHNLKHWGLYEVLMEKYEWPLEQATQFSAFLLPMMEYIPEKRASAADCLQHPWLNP

[5] = target: T5, CAMK2G (Homo sapiens, UniProt Q13555); experiment: KINOMEscan binding; settings: read-out: Percent Control
T5 construct: purchased Eurofins DiscoverX KINOMEscan

[6] = target: T6, JNK3 (Homo sapiens, UniProt P53779); experiment: KINOMEscan binding; settings: read-out: Percent Control
T6 construct: purchased Eurofins DiscoverX KINOMEscan

[7] = target: T7, NEK9 (Homo sapiens, UniProt Q8TD19); experiment: KINOMEscan binding; settings: read-out: Percent Control
T7 construct: purchased Eurofins DiscoverX KINOMEscan

[8] = target: T8, CAMK2A (Homo sapiens, UniProt Q9UQM7); experiment: KINOMEscan binding; settings: read-out: Percent Control
T8 construct: purchased Eurofins DiscoverX KINOMEscan

[9] = target: T9, CDC2L5 (Homo sapiens, UniProt Q14004); experiment: KINOMEscan binding; settings: read-out: Percent Control
T9 construct: purchased Eurofins DiscoverX KINOMEscan
Experimental: This platform contains 468 recombinant human kinases (more than 80% coverage) in which 56 disease-relevant mutants are included. The recombinant DNA-tagged kinases were incubated with the probe ligands immobilized to a solid support, and then the level of the captured kinases on the solid support was measured using quantitative PCR.

[10] = target: T10, DLK (Homo sapiens, UniProt Q12852); experiment: KINOMEscan binding; settings: read-out: Percent Control
T10 construct: purchased Eurofins DiscoverX KINOMEscan

[11] = target: T11, CDK11 (Homo sapiens, UniProt Q9BWU1); experiment: KINOMEscan binding; settings: read-out: Percent Control
T11 construct: purchased Eurofins DiscoverX KINOMEscan
T11 sequence (Q9BWU1 whole entry): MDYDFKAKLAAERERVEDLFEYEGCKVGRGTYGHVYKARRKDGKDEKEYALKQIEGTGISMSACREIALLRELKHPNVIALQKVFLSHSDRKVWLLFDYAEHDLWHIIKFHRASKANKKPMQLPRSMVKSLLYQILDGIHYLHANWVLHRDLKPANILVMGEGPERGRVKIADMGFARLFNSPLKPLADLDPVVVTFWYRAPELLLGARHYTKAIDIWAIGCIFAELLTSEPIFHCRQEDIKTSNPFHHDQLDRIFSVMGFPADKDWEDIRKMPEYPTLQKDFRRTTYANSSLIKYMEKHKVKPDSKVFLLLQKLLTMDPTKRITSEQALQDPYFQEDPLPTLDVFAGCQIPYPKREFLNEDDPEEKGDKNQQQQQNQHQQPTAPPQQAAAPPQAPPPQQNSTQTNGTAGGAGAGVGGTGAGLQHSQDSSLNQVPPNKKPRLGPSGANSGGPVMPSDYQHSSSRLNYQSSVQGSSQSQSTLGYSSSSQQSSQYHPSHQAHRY

[12] = target: T12, CSF1R-autoinhibited (Homo sapiens, UniProt P07333); experiment: KINOMEscan binding; settings: read-out: Percent Control
T12 construct: purchased Eurofins DiscoverX KINOMEscan

[13] = target: T13, MELK (Homo sapiens, UniProt Q14680); experiment: KINOMEscan binding; settings: read-out: Percent Control
T13 construct: purchased Eurofins DiscoverX KINOMEscan

[14] = target: T14, EPHB3 (Homo sapiens, UniProt P54753); experiment: KINOMEscan binding; settings: read-out: Percent Control
T14 construct: purchased Eurofins DiscoverX KINOMEscan
T14 sequence (P54753 34-998): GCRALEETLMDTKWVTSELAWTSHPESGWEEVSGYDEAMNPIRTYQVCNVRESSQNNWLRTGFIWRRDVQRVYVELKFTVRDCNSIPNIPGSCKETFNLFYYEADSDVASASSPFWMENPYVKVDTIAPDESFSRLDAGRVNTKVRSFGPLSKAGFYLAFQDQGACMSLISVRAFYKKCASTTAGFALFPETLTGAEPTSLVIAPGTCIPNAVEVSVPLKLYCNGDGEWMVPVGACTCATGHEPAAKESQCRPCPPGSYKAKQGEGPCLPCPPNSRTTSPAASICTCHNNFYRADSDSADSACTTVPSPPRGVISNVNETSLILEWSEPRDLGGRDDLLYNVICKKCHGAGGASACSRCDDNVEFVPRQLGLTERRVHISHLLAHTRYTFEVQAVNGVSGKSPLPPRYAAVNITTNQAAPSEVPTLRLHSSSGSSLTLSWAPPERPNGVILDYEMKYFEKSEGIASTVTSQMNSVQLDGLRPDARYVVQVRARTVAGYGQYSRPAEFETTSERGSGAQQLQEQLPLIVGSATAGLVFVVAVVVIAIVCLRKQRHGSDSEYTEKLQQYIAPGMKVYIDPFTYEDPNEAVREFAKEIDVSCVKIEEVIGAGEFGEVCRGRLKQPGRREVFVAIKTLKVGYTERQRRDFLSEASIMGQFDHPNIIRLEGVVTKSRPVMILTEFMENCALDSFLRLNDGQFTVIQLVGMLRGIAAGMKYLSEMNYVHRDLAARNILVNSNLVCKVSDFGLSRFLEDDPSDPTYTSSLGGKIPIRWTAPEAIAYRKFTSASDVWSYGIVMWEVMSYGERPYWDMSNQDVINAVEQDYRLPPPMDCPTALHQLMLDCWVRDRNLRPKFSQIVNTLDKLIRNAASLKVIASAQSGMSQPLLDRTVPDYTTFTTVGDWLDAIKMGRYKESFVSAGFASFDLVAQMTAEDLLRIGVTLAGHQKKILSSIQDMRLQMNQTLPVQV

[15] = target: T15, FGR (Homo sapiens, UniProt P09769); experiment: KINOMEscan binding; settings: read-out: Percent Control
T15 construct: purchased Eurofins DiscoverX KINOMEscan

[16] = target: T16, GSK3A (Homo sapiens, UniProt P49840); experiment: KINOMEscan binding; settings: read-out: Percent Control
T16 construct: purchased Eurofins DiscoverX KINOMEscan
T16 sequence (P49840 whole entry): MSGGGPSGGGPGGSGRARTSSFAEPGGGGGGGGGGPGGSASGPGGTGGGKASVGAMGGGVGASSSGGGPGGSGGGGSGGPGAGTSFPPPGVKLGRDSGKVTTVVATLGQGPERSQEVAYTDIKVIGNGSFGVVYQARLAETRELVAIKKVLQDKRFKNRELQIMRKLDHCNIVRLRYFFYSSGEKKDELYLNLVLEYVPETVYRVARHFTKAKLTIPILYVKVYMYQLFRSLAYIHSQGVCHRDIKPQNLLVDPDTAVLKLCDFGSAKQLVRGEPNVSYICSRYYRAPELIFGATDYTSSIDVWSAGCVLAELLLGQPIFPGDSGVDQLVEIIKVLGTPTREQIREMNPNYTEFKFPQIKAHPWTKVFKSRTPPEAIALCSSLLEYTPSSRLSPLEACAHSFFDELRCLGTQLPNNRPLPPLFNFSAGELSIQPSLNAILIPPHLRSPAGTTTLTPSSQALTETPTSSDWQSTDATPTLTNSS

[17] = target: T17, GRK3 (Homo sapiens, UniProt P35626); experiment: KINOMEscan binding; settings: read-out: Percent Control
T17 construct: purchased Eurofins DiscoverX KINOMEscan

[18] = target: T18, DCAMKL3 (Homo sapiens, UniProt Q9C098); experiment: KINOMEscan binding; settings: read-out: Percent Control
T18 construct: purchased Eurofins DiscoverX KINOMEscan

[19] = target: T19, MAP3K1 (Homo sapiens, UniProt Q13233); experiment: KINOMEscan binding; settings: read-out: Percent Control
T19 construct: purchased Eurofins DiscoverX KINOMEscan

[20] = target: T20, CAMK1 (Homo sapiens, UniProt Q14012); experiment: KINOMEscan binding; settings: read-out: Percent Control
T20 construct: purchased Eurofins DiscoverX KINOMEscan

[21] = target: T21, ABL1(Y253F)-phosphorylated (Homo sapiens, UniProt P00519, Y253F); experiment: KINOMEscan binding; settings: read-out: Percent Control
T21 construct: purchased Eurofins DiscoverX KINOMEscan

[22] = tested on: ROCK1; parameters: method as in PMID 18832915; settings: cited from earlier work
[23] = target: T22, CDC2L1 (Homo sapiens, UniProt P21127); experiment: KINOMEscan binding; settings: read-out: Percent Control
T22 construct: purchased Eurofins DiscoverX KINOMEscan

[24] = target: T23, MAST1 (Homo sapiens, UniProt Q9Y2H9); experiment: KINOMEscan binding; settings: read-out: Percent Control
T23 construct: purchased Eurofins DiscoverX KINOMEscan

[25] = target: T24, TAOK1 (Homo sapiens, UniProt Q7L7X3); experiment: KINOMEscan binding; settings: read-out: Percent Control
T24 construct: purchased Eurofins DiscoverX KINOMEscan

[26] = target: T25, PRKCI (Homo sapiens, UniProt P41743); experiment: KINOMEscan binding; settings: read-out: Percent Control
T25 construct: purchased Eurofins DiscoverX KINOMEscan

[27] = target: T26, TTK (Homo sapiens, UniProt P33981); experiment: KINOMEscan binding; settings: read-out: Percent Control
T26 construct: purchased Eurofins DiscoverX KINOMEscan

[28] = target: T27, CDK4 (Homo sapiens, UniProt P11802); experiment: KINOMEscan binding; settings: read-out: Percent Control
T27 construct: purchased Eurofins DiscoverX KINOMEscan
T27 sequence (P11802 whole entry): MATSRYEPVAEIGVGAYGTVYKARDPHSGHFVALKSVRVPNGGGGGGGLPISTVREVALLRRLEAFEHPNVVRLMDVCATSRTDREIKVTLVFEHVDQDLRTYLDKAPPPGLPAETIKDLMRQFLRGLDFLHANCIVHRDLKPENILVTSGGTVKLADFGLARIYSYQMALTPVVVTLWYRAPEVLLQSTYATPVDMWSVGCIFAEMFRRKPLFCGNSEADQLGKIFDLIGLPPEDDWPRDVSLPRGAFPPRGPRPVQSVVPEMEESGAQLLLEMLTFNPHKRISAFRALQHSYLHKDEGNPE

[29] = target: T28, SNRK (Homo sapiens, UniProt Q9NRH2); experiment: KINOMEscan binding; settings: read-out: Percent Control
T28 construct: purchased Eurofins DiscoverX KINOMEscan

[30] = target: T29, NEK2 (Homo sapiens, UniProt P51955); experiment: KINOMEscan binding; settings: read-out: Percent Control
T29 construct: purchased Eurofins DiscoverX KINOMEscan
T29 sequence (P51955 whole entry): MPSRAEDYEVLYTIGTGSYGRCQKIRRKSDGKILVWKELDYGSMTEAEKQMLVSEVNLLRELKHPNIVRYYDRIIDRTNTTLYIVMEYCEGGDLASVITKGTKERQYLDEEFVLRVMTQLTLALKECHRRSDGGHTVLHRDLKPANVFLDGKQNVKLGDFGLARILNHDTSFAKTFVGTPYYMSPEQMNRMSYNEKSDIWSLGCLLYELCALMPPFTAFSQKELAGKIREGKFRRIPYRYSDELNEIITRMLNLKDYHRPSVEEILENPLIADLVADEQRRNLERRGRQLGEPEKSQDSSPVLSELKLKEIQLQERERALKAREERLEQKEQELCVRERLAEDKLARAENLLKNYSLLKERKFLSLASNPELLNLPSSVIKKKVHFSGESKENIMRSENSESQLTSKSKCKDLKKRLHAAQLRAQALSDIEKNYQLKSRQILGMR

[31] = target: T30, CAMK1D (Homo sapiens, UniProt Q8IU85); experiment: KINOMEscan binding; settings: read-out: Percent Control
T30 construct: purchased Eurofins DiscoverX KINOMEscan

[32] = target: T31, DYRK1A (Homo sapiens, UniProt Q13627); experiment: KINOMEscan binding; settings: read-out: Percent Control
T31 construct: purchased Eurofins DiscoverX KINOMEscan

[33] = target: T32, NEK11 (Homo sapiens, UniProt Q8NG66); experiment: KINOMEscan binding; settings: read-out: Percent Control
T32 construct: purchased Eurofins DiscoverX KINOMEscan
T32 sequence (Q8NG66 whole entry): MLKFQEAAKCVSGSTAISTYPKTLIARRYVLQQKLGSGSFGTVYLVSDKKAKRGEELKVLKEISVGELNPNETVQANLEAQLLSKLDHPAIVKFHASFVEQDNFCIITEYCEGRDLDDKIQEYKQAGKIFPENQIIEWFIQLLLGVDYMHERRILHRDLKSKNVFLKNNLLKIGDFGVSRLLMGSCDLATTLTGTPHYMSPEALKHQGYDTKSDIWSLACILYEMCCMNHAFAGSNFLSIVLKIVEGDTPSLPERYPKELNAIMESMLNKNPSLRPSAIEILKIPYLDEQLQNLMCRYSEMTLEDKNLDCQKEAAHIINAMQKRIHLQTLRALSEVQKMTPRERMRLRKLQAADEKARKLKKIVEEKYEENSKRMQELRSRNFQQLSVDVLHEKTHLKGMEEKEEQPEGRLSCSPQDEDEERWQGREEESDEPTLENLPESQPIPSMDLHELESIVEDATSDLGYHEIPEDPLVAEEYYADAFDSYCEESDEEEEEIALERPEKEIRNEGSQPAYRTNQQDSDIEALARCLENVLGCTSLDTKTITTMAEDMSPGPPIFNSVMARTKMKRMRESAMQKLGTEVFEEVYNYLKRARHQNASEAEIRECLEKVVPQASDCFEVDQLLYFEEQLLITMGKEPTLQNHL

[34] = target: T33, ULK2 (Homo sapiens, UniProt Q8IYT8); experiment: KINOMEscan binding; settings: read-out: Percent Control
T33 construct: purchased Eurofins DiscoverX KINOMEscan

[35] = target: T34, TRPM6 (Homo sapiens, UniProt Q9BX84); experiment: KINOMEscan binding; settings: read-out: Percent Control
T34 construct: purchased Eurofins DiscoverX KINOMEscan

[36] = target: T35, RET(V804L) (Homo sapiens, UniProt P07949, V804L); experiment: KINOMEscan binding; settings: read-out: Percent Control
T35 construct: purchased Eurofins DiscoverX KINOMEscan

[37] = target: T36, GSK3B (Homo sapiens, UniProt P49841); experiment: KINOMEscan binding; settings: read-out: Percent Control
T36 construct: purchased Eurofins DiscoverX KINOMEscan

[38] = target: T37, NDR2 (Homo sapiens, UniProt Q9Y2H1); experiment: KINOMEscan binding; settings: read-out: Percent Control
T37 construct: purchased Eurofins DiscoverX KINOMEscan
T37 sequence (Q9Y2H1 whole entry): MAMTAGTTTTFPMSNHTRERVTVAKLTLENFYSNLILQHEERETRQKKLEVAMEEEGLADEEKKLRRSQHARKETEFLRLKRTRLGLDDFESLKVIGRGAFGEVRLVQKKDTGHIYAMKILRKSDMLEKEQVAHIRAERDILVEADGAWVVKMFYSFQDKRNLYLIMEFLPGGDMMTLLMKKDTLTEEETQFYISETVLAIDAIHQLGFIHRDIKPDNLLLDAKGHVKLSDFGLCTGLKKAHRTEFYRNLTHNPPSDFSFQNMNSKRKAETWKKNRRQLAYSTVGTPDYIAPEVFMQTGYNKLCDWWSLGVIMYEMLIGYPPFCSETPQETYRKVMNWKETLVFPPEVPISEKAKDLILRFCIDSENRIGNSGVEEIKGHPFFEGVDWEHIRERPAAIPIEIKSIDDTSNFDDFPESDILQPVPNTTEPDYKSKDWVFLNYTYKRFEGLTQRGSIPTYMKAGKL

[39] = target: T38, SRPK2 (Homo sapiens, UniProt P78362); experiment: KINOMEscan binding; settings: read-out: Percent Control
T38 construct: purchased Eurofins DiscoverX KINOMEscan

[40] = target: T39, PDPK1 (Homo sapiens, UniProt O15530); experiment: KINOMEscan binding; settings: read-out: Percent Control
T39 construct: purchased Eurofins DiscoverX KINOMEscan

[41] = target: T40, CIT (Homo sapiens, UniProt O14578); experiment: KINOMEscan binding; settings: read-out: Percent Control
T40 construct: purchased Eurofins DiscoverX KINOMEscan

[42] = target: T41, WEE1 (Homo sapiens, UniProt P30291); experiment: KINOMEscan binding; settings: read-out: Percent Control
T41 construct: purchased Eurofins DiscoverX KINOMEscan
T41 sequence (P30291 whole entry): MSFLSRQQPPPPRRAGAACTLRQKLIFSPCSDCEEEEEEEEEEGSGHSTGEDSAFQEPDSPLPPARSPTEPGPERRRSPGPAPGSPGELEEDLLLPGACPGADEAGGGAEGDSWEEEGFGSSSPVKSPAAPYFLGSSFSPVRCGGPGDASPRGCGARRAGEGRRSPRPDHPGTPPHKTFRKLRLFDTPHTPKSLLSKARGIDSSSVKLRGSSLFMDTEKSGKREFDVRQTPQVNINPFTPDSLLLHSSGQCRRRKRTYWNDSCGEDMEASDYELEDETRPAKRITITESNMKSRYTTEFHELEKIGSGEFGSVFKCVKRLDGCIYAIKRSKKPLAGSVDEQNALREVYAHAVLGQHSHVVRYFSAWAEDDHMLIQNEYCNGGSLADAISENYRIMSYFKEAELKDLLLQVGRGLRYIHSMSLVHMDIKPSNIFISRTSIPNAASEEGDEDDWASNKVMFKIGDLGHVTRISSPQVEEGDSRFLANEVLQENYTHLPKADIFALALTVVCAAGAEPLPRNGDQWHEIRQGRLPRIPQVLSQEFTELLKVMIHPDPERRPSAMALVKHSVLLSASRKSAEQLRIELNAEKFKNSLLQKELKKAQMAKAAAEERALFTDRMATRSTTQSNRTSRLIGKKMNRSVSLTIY

[43] = target: T42, PAK3 (Homo sapiens, UniProt O75914); experiment: KINOMEscan binding; settings: read-out: Percent Control
T42 construct: purchased Eurofins DiscoverX KINOMEscan

[44] = target: T43, ADCK3 (Homo sapiens, UniProt Q8NI60); experiment: KINOMEscan binding; settings: read-out: Percent Control
T43 construct: purchased Eurofins DiscoverX KINOMEscan

For CC(C)NC(=O)COc1cccc(-c2nc(Nc3ccc4[nH]ncc4c3)c3ccccc3n2)c1 [KD025, 2-(3-(4-((1H-indazol-5-yl)amino)quinazolin-2-yl)phenoxy)-N-isopropylacetamide], the remaining binding at 10 µM [1] was 88%, the remaining binding at 10 µM [2] was 74% and the remaining binding at 10 µM [3] was 62%. The remaining binding at 10 µM [4] was 5.7%, the remaining binding at 10 µM [5] was 99% and the remaining binding at 10 µM [6] was 78%. The remaining binding at 10 µM [7] was 85%, the remaining binding at 10 µM [8] was 87% and the remaining binding at 10 µM [9] was 100%. For the same compound, the remaining binding at 10 µM [10] was 58%, the remaining binding at 10 µM [11] was 99% and the remaining binding at 10 µM [12] was 91%. It also gave a remaining binding at 10 µM [13] of 83%, a remaining binding at 10 µM [14] of 99% and a remaining binding at 10 µM [15] of 82%. It also gave a remaining binding at 10 µM [16] of 100%, a remaining binding at 10 µM [17] of 84% and a remaining binding at 10 µM [18] of 64%. It also gave a remaining binding at 10 µM [19] of 85%, a remaining binding at 10 µM [20] of 100% and a remaining binding at 10 µM [21] of 49%. The IC50 [22] was 24 µM, the remaining binding at 10 µM [23] was 98% and the remaining binding at 10 µM [24] was 100%. For the same compound, the remaining binding at 10 µM [25] was 71%, the remaining binding at 10 µM [26] was 76% and the remaining binding at 10 µM [27] was 28%. It also gave a remaining binding at 10 µM [28] of 100%, a remaining binding at 10 µM [29] of 14% and a remaining binding at 10 µM [30] of 83%. It also gave a remaining binding at 10 µM [31] of 100%, a remaining binding at 10 µM [32] of 72% and a remaining binding at 10 µM [33] of 99%. For the same compound, the remaining binding at 10 µM [34] was 87%, the remaining binding at 10 µM [35] was 93% and the remaining binding at 10 µM [36] was 67%. For the same compound, the remaining binding at 10 µM [37] was 100%, the remaining binding at 10 µM [38] was 77% and the remaining binding at 10 µM [39] was 66%. The remaining binding at 10 µM [40] was 70%, the remaining binding at 10 µM [41] was 75% and the remaining binding at 10 µM [42] was 100%. It also gave a remaining binding at 10 µM [43] of 77% and a remaining binding at 10 µM [44] of 78%.
